Experimental data: patent US8785460B2, “Tricyclic compounds and use thereof” (Takeda Pharmaceutical Company Limited, priority 2008, dated 2014)

What was measured:
human CRF1 receptor = biological target: T1, human CRF1 receptor (Homo sapiens, UniProt P34998); assay: Measurement of CRF Binding Inhibitory Rate (receptor binding experiment with 125I-CRF); details: human CRF1 receptor expressing CHO cellular membrane fraction, 50 pM 125I-CRF, room temperature 1.5 hr, 0.05 nM to 10 μM of compound; read-out: IC50 values (CRF binding inhibition)
T1 construct: expressed in transfected cells; host or cells: CHO cells (membrane fraction)
T1 sequence (P34998 24-415): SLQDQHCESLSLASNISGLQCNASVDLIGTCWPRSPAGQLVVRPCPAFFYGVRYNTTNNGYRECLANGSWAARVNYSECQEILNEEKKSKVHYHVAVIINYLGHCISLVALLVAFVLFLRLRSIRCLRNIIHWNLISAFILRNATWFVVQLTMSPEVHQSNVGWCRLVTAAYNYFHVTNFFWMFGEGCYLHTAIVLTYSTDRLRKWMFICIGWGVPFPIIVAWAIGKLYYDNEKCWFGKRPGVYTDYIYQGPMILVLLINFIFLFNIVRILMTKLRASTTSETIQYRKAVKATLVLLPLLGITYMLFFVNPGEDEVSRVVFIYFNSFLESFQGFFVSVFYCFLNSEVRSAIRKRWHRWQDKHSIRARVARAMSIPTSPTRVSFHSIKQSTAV

| Structure (SMILES) | melting point | IC50 (human CRF1 receptor) |
| --- | --- | --- |
| CCC(OC(C)=O)c1ccc(Cl)c2nc3n(c12)CCCN3c1ccc(N(C)C)nc1C (centres unmarked) [Example 166, 1-{9-Chloro-1-[6-(dimethylamino)-2-methylpyridin-3-yl]-1,2,3,4-tetrahydropyrimido[1,2-a]benzimidazol-6-yl}propyl acetate] | 165 to 166 °C | < 1 µM |
| COC(c1ccc(Cl)c2nc3n(c12)CCCN3c1ccc(Cl)cc1Cl)C1CC1 (centres unmarked) [Example 117, 9-Chloro-6-[cyclopropyl(methoxy)methyl]-1-(2,4-dichlorophenyl)-1,2,3,4-tetrahydropyrimido[1,2-a]benzimidazole] | 138 to 139 °C | < 1 µM |
| CCN(CC)c1cccc2nc3n(c12)CC(=O)CCN3c1ccc(Cl)cc1Cl [Example 71, 1-(2,4-Dichlorophenyl)-7-(diethylamino)-2,3-dihydro-1H-[1,3]diazepino[1,2-a]benzimidazol-4(5H)-one] | 169 to 170 °C | < 1 µM |
| CCC(CC)(OC)c1ccc(Cl)c2nc3n(c12)CCCN3c1ccc(Cl)cc1Cl [Example 110, 9-Chloro-1-(2,4-dichlorophenyl)-6-(1-ethyl-1-methoxypropyl)-1,2,3,4-tetrahydropyrimido[1,2-a]benzimidazole] | 124 to 125 °C | < 1 µM |
| CCC(CC)c1ccc(Cl)c2nc3n(c12)CCCCN3c1ccc(C)cc1Br [Example 31, 1-(2-Bromo-4-methylphenyl)-10-chloro-7-(1-ethylpropyl)-2,3,4,5-tetrahydro-1H-[1,3]diazepino[1,2-a]benzimidazole] | 152 to 155 °C | < 1 µM |
| CC(=O)OC(c1ccc(Cl)c2nc3n(c12)CCCN3c1ccc(Cl)cc1Cl)C(F)(F)F (centres unmarked) [Example 311, 1-[9-Chloro-1-(2,4-dichlorophenyl)-1,2,3,4-tetrahydropyrimido[1,2-a]benzimidazol-6-yl]-2,2,2-trifluoroethyl acetate] | 197 to 199 °C | < 1 µM |
| CCCC(O)(CCC)c1ccc(Cl)c2nc3n(c12)CCCN3c1ccc(Cl)cc1C(F)(F)F [Example 129, 4-{9-Chloro-1-[4-chloro-2-(trifluoromethyl)phenyl]-1,2,3,4-tetrahydropyrimido[1,2-a]benzimidazol-6-yl}heptan-4-ol] | 200 to 202 °C | < 1 µM |
| CCC(c1ccc(Cl)c2nc3n(c12)CCCN3c1ccc(Cl)cc1Cl)S(=O)(=O)CC (centres unmarked) [Example 462] | 278 to 280 °C | < 1 µM |
| CCC(CC)c1ccc(Cl)c2nc3n(c12)CCCCN3c1ccc(SC)cc1C [Example 44, 10-Chloro-7-(1-ethylpropyl)-1-[2-methyl-4-(methylthio)phenyl]-2,3,4,5-tetrahydro-1H-[1,3]diazepino[1,2-a]benzimidazole] | 113 to 115 °C | < 1 µM |
| CCCC(O)(CCC)c1ccc(Cl)c2nc3n(c12)CCCN3c1ccc(Cl)cc1Cl [Example 233, 4-[9-Chloro-1-(2,4-dichlorophenyl)-1,2,3,4-tetrahydropyrimido[1,2-a]benzimidazol-6-yl]heptan-4-ol] | 133 to 135 °C | < 1 µM |
| CCC(CC)c1ccc(Cl)c2nc3n(c12)CCN3c1ccc(C(N)=O)cc1Cl [Example 15, 3-Chloro-4-[8-chloro-5-(1-ethylpropyl)-2,3-dihydro-1H-imidazo[1,2-a]benzimidazol-1-yl]benzamide] | 225 to 229 °C | < 1 µM |
| CCC(CC)c1ccc(Cl)c2nc3n(c12)CCCCN3c1c[n+]([O-])c(N(C)C)cc1C [Example 26, 5-[10-Chloro-7-(1-ethylpropyl)-2,3,4,5-tetrahydro-1H-[1,3]diazepino[1,2-a]benzimidazol-1-yl]-N,N,4-trimethylpyridin-2-amine 1-oxide] | 142 to 143 °C | < 1 µM |
| CCC(OC(C)=O)c1ccc(Cl)c2nc3n(c12)CCCN3c1ccc(OC)cc1Cl (centres unmarked) [Example 260, 1-[9-Chloro-1-(2-chloro-4-methoxyphenyl)-1,2,3,4-tetrahydropyrimido[1,2-a]benzimidazol-6-yl]propyl acetate] | 178 to 180 °C | < 1 µM |
| CCNC(=O)NC(CC)c1ccc(Cl)c2nc3n(c12)CCCN3c1ccc(Cl)cc1Cl (centres unmarked) [Example 374, 1-{1-[9-Chloro-1-(2,4-dichlorophenyl)-1,2,3,4-tetrahydropyrimido[1,2-a]benzimidazol-6-yl]propyl}-3-ethylurea] | 250 to 252 °C | < 1 µM |
| CCC(O)(CC)c1ccc(Cl)c2nc3n(c12)CCCN3c1ccc(Cl)cc1Cl [Example 107, 3-[9-Chloro-1-(2,4-dichlorophenyl)-1,2,3,4-tetrahydropyrimido[1,2-a]benzimidazol-6-yl]pentan-3-ol] | 199 to 201 °C | < 1 µM |
| CCC(OC(=O)COC)c1ccc(Cl)c2nc3n(c12)CCCN3c1ccc(Cl)cc1Cl (centres unmarked) [Example 432, 1-[9-Chloro-1-(2,4-dichlorophenyl)-1,2,3,4-tetrahydropyrimido[1,2-a]benzimidazol-6-yl]propyl methoxyacetate] | 156 to 158 °C | < 1 µM |
| CCC(O)c1ccc(Cl)c2nc3n(c12)CCCN3c1ccc(Cl)cc1C(F)(F)F (centres unmarked) [Example 131, 1-{9-Chloro-1-[4-chloro-2-(trifluoromethyl)phenyl]-1,2,3,4-tetrahydropyrimido[1,2-a]benzimidazol-6-yl}propan-1-ol] | 220 to 222 °C | < 1 µM |
| COC(c1cccc2nc3n(c12)CCCN3c1ccc(Cl)cc1Cl)C(F)(F)F (centres unmarked) [Example 202, 1-(2,4-Dichlorophenyl)-6-(2,2,2-trifluoro-1-methoxyethyl)-1,2,3,4-tetrahydropyrimido[1,2-a]benzimidazole] | 164 to 165 °C | < 1 µM |
| CS(=O)(=O)NC(c1ccc(Cl)c2nc3n(c12)CCCN3c1c(Cl)cc(Cl)cc1Cl)C(F)(F)F (centres unmarked) [Example 416, N-{1-[9-Chloro-1-(2,4,6-trichlorophenyl)-1,2,3,4-tetrahydropyrimido[1,2-a]benzimidazol-6-yl]-2,2,2-trifluoroethyl}methanesulfonamide] | 290 to 291 °C | < 1 µM |
| CCC(CC)c1ccc(Cl)c2nc3n(c12)CCCCN3c1ncc(C(N)=O)cc1C [Example 340, 6-[10-Chloro-7-(1-ethylpropyl)-2,3,4,5-tetrahydro-1H-[1,3]diazepino[1,2-a]benzimidazol-1-yl]-5-methylpyridine-3-carboxamide] | 234 to 235 °C | < 1 µM |
| Cc1nc(OC(F)F)ccc1N1CCCn2c1nc1c(Cl)ccc(C(OC(F)F)C(F)(F)F)c12 (centres unmarked) [Example 290, 9-Chloro-1-[6-(difluoromethoxy)-2-methylpyridin-3-yl]-6-[1-(difluoromethoxy)-2,2,2-trifluoroethyl]-1,2,3,4-tetrahydropyrimido[1,2-a]benzimidazole] | 145 to 148 °C | < 1 µM |
| CCC(CC)c1ccc(Cl)c2nc3n(c12)CCCCN3c1ncc(S(C)(=O)=O)cc1C [Example 341, 10-Chloro-7-(1-ethylpropyl)-1-[3-methyl-5-(methylsulfonyl)pyridin-2-yl]-2,3,4,5-tetrahydro-1H-[1,3]diazepino[1,2-a]benzimidazole] | 137 to 139 °C | < 1 µM |
| CCC(CC)c1ccc(Cl)c2nc3n(c12)CCCCN3c1cnc(C#N)cc1C [Example 59, 5-[10-Chloro-7-(1-ethylpropyl)-2,3,4,5-tetrahydro-1H-[1,3]diazepino[1,2-a]benzimidazol-1-yl]-4-methylpyridine-2-carbonitrile] | 177 to 178 °C | < 1 µM |
| CCC(CC)c1ccc(Cl)c2nc3n(c12)CCCCN3c1c(C)noc1C [Example 343, 10-Chloro-1-(3,5-dimethylisoxazol-4-yl)-7-(1-ethylpropyl)-2,3,4,5-tetrahydro-1H-[1,3]diazepino[1,2-a]benzimidazole] | 163 to 164 °C | < 1 µM |
| CC(=O)OC(C)c1ccc(Cl)c2nc3n(c12)CCCN3c1ccc(Cl)cc1Cl (centres unmarked) [Example 243, 1-[9-Chloro-1-(2,4-dichlorophenyl)-1,2,3,4-tetrahydropyrimido[1,2-a]benzimidazol-6-yl]ethyl acetate] | 204 to 206 °C | < 1 µM |
| CCC(NC(=O)OC)c1ccc(Cl)c2nc3n(c12)CCCN3c1ccc(Cl)cc1Cl (centres unmarked) [Example 446, Methyl {1-[9-chloro-1-(2,4-dichlorophenyl)-1,2,3,4-tetrahydropyrimido[1,2-a]benzimidazol-6-yl]propyl}carbamate] | 201 to 203 °C | < 1 µM |
| FC(F)(F)COC(c1ccc(Cl)c2nc3n(c12)CCCN3c1ccc(Cl)cc1Cl)C1CC1 (centres unmarked) [Example 455, 9-Chloro-6-[cyclopropyl (2,2,2-trifluoroethoxy)methyl]-1-(2,4-dichlorophenyl)-1,2,3,4-tetrahydropyrimido[1,2-a]benzimidazole] | 143 to 145 °C | < 1 µM |
| CCC(OCC1CC1)c1ccc(Cl)c2nc3n(c12)CCCN3c1ccc(Cl)cc1Cl (centres unmarked) [Example 236, 9-Chloro-6-[1-(cyclopropylmethoxy)propyl]-1-(2,4-dichlorophenyl)-1,2,3,4-tetrahydropyrimido[1,2-a]benzimidazole] | 159 to 160 °C | < 1 µM |
